SMILES strings stand for the structures.

Common to all, as to format: binding
In assay [1] the target is T1, panel of 442 kinases (Homo sapiens, UniProt Q14004).
T1 construct: purchased KINOMEscan
The note with it: Compound Concentration 10 µM. From the text: (§1) We assessed the selectivity of members of this scaffold using the KINOMEscan methodology across a near comprehensive panel of 442 kinases [[18,27]].

Assay [2] concerns the target T2, panel of 442 kinases (Homo sapiens, UniProt Q96GD4).
T2 construct: purchased KINOMEscan
The note with it: Compound Concentration 10 µM.
Source text: as §1

In assay [3] the target is T3, panel of 442 kinases (Homo sapiens, UniProt Q9H2K8).
T3 construct: purchased KINOMEscan
T3 sequence (Q9H2K8 1-898): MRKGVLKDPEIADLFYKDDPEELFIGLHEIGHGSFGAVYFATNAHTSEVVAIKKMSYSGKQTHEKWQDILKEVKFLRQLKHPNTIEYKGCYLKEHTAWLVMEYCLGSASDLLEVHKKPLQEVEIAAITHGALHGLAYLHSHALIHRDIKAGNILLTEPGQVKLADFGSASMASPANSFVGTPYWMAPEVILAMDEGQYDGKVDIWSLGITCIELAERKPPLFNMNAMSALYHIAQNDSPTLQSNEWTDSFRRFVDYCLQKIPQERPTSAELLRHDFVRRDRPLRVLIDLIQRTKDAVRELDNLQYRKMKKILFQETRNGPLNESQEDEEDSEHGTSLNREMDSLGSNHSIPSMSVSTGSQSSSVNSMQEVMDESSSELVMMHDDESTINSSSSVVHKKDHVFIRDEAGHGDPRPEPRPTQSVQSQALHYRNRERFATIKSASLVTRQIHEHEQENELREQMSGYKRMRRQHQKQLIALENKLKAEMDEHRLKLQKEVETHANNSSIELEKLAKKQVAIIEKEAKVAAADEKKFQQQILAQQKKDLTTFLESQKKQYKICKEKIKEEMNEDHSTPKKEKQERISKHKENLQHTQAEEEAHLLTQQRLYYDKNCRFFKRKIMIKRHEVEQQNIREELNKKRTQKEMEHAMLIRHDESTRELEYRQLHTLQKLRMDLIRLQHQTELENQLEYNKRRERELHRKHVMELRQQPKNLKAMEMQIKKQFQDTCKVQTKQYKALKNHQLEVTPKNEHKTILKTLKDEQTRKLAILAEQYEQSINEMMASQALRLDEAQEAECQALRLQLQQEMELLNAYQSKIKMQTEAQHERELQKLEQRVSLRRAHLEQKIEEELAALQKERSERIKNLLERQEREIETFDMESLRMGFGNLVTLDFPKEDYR
The note with it: kinase TAOK3; compound concentration 10 µM.
Source text: as §1

T1 sequence (Q14004 whole entry): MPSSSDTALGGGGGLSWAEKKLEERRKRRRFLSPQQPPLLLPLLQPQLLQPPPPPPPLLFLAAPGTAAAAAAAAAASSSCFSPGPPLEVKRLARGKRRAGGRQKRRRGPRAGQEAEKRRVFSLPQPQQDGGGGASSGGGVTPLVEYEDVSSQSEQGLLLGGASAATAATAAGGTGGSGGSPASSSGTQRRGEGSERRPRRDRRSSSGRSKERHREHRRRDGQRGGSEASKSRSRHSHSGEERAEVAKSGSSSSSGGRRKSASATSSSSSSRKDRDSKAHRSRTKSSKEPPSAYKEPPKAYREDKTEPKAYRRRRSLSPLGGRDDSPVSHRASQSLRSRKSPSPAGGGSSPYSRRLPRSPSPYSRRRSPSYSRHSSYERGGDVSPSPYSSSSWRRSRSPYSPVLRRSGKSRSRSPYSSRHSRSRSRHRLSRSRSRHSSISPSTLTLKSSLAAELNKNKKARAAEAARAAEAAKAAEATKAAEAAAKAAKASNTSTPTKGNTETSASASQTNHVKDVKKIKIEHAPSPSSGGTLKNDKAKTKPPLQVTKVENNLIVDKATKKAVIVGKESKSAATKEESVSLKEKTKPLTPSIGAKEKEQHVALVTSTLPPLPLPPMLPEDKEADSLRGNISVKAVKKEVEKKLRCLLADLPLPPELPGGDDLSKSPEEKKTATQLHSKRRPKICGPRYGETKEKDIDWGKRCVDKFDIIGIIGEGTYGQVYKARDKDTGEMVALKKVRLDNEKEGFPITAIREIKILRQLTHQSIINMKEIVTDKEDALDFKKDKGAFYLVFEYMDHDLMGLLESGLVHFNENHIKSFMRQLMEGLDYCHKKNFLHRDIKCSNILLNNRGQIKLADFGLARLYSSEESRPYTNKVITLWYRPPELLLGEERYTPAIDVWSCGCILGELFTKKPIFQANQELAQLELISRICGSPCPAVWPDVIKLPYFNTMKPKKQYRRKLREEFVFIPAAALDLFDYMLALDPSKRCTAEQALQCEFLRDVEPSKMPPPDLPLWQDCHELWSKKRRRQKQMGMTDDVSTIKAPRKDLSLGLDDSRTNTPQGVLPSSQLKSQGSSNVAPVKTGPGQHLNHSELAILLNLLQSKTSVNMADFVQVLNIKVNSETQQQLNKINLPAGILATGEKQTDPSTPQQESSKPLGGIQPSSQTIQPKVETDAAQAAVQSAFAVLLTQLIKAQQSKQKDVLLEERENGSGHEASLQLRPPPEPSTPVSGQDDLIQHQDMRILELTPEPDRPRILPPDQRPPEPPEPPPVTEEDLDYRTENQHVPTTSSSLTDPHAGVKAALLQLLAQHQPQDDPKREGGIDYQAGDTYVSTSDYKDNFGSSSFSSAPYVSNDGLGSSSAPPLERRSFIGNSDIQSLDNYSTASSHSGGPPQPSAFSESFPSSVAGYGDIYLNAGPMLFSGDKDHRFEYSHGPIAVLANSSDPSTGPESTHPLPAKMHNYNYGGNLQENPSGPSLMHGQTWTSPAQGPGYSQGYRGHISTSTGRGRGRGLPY
T2 sequence (Q96GD4 whole entry): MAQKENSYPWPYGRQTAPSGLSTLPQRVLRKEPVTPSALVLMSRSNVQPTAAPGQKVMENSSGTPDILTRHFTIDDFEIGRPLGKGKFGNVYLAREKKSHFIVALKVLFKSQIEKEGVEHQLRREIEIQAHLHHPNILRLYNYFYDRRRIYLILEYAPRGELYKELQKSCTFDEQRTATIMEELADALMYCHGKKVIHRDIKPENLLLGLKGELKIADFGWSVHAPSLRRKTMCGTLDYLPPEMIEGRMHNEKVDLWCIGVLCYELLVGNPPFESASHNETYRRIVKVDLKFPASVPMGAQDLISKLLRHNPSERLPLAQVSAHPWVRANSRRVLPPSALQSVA

`COc1cc(C(=O)N2CCC(N3CCN(C)CC3)CC2)ccc1Nc1ncc2c(n1)N(C)c1ccccc1C(=O)N2C` [15 (LRRK2-IN-1)]: the “KINOMEscan: CDC2L5” value in assay [1] is 100. Besides, in assay [2], the “KINOMEscan: AURKB” value is given as 38. Also, in assay [3], the “% Ctrl, TAOK3” value was found to be 24 % Ctrl.
Take `COc1cc(C(=O)N2CCC(N3CCN(C)CC3)CC2)ccc1Nc1ncc2c(n1)N1CCc3cccc(c31)C(=O)N2C` [Compound 24]: the “% Ctrl, TAOK3” value in assay [3] is given as 100 % Ctrl.
As for `COc1cc(C(=O)N2CCC(N3CCN(C)CC3)CC2)ccc1Nc1ncc2c(n1)N(C1CCCC1)c1ccccc1C(=O)N2C` [Compound 25, 11-cyclopentyl-2-((2-methoxy-4-(4-(4-methylpiperazin-1-yl)piperidine-1-carbonyl)phenyl)amino)-5-methyl-5H-benzo[e]pyrimido[5,4-b][1,4]diazepin-6(11H)-one], the “KINOMEscan: CDC2L5” value in assay [1] was 100. Besides, the “KINOMEscan: AURKB” value in assay [2] is 60. Besides, in assay [3], the “% Ctrl, TAOK3” value is given as 100 % Ctrl.
Consider `CCOc1cc(C(=O)N2CCC(N3CCN(C)CC3)CC2)ccc1Nc1ncc2c(n1)N(C1CCCC1)c1ccccc1C(=O)N2C` [Compound 26], for which the “KINOMEscan: CDC2L5” value in assay [1] amounted to 100. Also, the “KINOMEscan: AURKB” value in assay [2] stood at 100. Moreover, the “% Ctrl, TAOK3” value in assay [3] came to 82 % Ctrl.

The values above are taken from publication PMC3914206.
